The subject of assay [1] is rhabdomyolysis (Rh)-induced iAKI. The assay can be described thus: functional screening of amino acids in rhabdomyolysis (Rh)-induced iAKI (50% glycerol i.m.). Format: in vivo, wild type C57BL6 mice. As for the experimental part: FIGS. 2A-L show a functional screening of amino acids for the regulation of rhabdomyolysis (Rh)-induced iAKI. Rh was incurred by intramuscularly injecting 50% glycerol (6 ml/kg), and renal functions were analyzed by quantitating serum creatinine (sCr) and blood urea nitrogen (BUN) after 24, 48 and 168 hours. […] or glutamine (75 mg/kg) were intraperitoneally administered into wild type C57BL6 mice at 1 hour prior to injury incurrence. It was observed that sCr and BUN were reduced at 24 hours (FIGS. 2A, B) in isoleucine-treated rhabdomyolysis mice, but were increased at 48 hours in leucine-treated mice (FIGS. 2C, D) when compared with vehicle (Veh)-treated counterparts (n=7). […] FIG. 2[…], or histidine were intraperitoneally administered into wild type C57BL6 mice at 1 hour prior to injury incurrence and then every 8 hours thereafter. It was observed that threonine reduces sCr and BUN at 24 h and histidine reduces sCr and BUN at 24 h and 48 h when compared with Veh Rh mice. Therefore, threonine and histidine protected from Rh-induced iAKI. […] FIGS. 3A-F show a functional screening of […] or L-valine for the regulation of rhabdomyolysis (Rh)-induced iAKI. Rh was incurred by intramuscularly injecting 50% glycerol (6 ml/kg), and renal functions were analyzed by quantitating serum creatinine (sCr) and blood urea nitrogen (BUN) after 24, 48 and 168 hours. FIGS. 3[…] or L-valine (75 mg/kg) were intraperitoneally administered into wild type C57BL6 mice at 1 hour prior to injury incurrence and then every 8 hours for a total of 5 doses.

In assay [2] the test system is ischemia reperfusion (I/R)-induced iAKI. The assay can be described thus: functional screening of amino acids in ischemia reperfusion (I/R)-induced iAKI. Format: in vivo, wild type C57B/L6 mice. As to conditions: 48 hours reperfusion after 25 min ischemia, 75 mg/kg i.p. 1 hour prior and every 8 hours afterwards, vs vehicle; for BUN / sCr: n=5-6. As for the experimental part: FIGS. 4A-F show functional screening of amino acids for the regulation of ischemia reperfusion (I/R)-induced iAKI. Ischemia was incurred by clamping renal artery of the left kidney for 25 min while the right kidney was removed prior to clamping. Renal functions were analyzed by quantitating serum creatinine (sCr) and blood urea nitrogen (BUN) after the reperfusion for 48 hours. FIGS. 4[…]) or L-valine (Val; 75 mg/kg) were intraperitoneally administered into wild type C57B/L6 mice 1 hour prior to the induction of ischemic and every 8 hours afterwards.

Assay [3] relates to mTORC1. As to conditions: human embryonic kidney 293A (HEK293A) cells; cited from earlier work.
Assay [4] relates to mTORC1. Particulars: cited from earlier work; for mTORC1 activation (phosphorylation of S6K1 at threonine 389): mouse embryonic fibroblast (MEF) cells.
The subject of assay [5] is ischemic acute kidney injury (AKI). Kind of assay: ischemia/reperfusion (IR) ischemic AKI in nephron-specific Spns1 knockout mice, L-leucine pretreatment. Format: in vivo. As to conditions: Spns1f/f/Six2-Cre IR AKI mice; 75 mg/kg i.p. 1 hour prior; 25 min ischemia, 48 hours reperfusion; vs vehicle; n=4-7. As for the experimental part: (§1) L-leucine (75 mg/kg) was intraperitoneally administered into wild type (WT) and nephron-specific Spns1 knockout (Spns1f/f/Six2-Cre) mice 1 hour prior to initiating ischemic AKI. The left kidney was then removed. Ischemia/reperfusion (IR) was performed by clamping the renal artery of the right kidney for 25 min of ischemia followed by 48 hours of reperfusion.

For assay [6] the test system is unchanged. Kind of assay: ischemia/reperfusion (IR) ischemic AKI in wild type mice, L-leucine pretreatment. Format: in vivo. As to conditions: WT IR AKI mice; 75 mg/kg i.p. 1 hour prior; 25 min ischemia, 48 hours reperfusion; vs vehicle; n=4-7. As for the experimental part: as §1
The mark [7] stands for this setting: 24 h post Rh, i.p. 1 hour prior to injury and every 8 hours thereafter, vs Veh Rh mice (FIG. 2G).
Where [8] appears, read: 24 h post Rh, i.p. 1 hour prior to injury and every 8 hours thereafter, vs Veh Rh mice (FIG. 2H).
The mark [9] stands for this setting: 24 hours post Rh, 75 mg/kg i.p. 1 hour prior to injury then every 8 hours, total 5 doses, vs vehicle, n=7 (FIG. 3A).
Where [10] appears, read: 24 hours post Rh, 75 mg/kg i.p. 1 hour prior to injury then every 8 hours, total 5 doses, vs vehicle, n=7 (FIG. 3B).

Molecules are shown by their SMILES. Where two headings read alike, the source gives them in different places.

In the case of `C[C@@H](O)[C@H](N)C(=O)O` [L-threonine], the sCr result is on record as “reduces” in assay [1] (setting [7]) and “reduced” in assay [2]. In addition, the values for the BUN entry in assay [1] (setting [8]) and in assay [2] were “reduces” and “reduced”, respectively. Besides, the “mTORC1 activation (phosphorylation of S6K1 at threonine 389)” value in assay [3] and in assay [4] was “activate” each time.

In the case of `CC(C)C[C@H](N)C(=O)O` [L-leucine], the sCr result in assay [1] (48 hours post Rh, 75 mg/kg i.p. 1 hour prior to injury, vs vehicle, n=7 (FIG. 2C)) is on record as “increased”; in assay [2], “reduced”. Besides, the BUN entry is reported as “increased” in assay [1] (48 hours post Rh, 75 mg/kg i.p. 1 hour prior to injury, vs vehicle, n=7 (FIG. 2D)) and “reduced” in assay [2]. Besides, the “Serum creatinine (sCr)” value in assay [5] and in assay [6] was “markedly reduced” in each case. The “blood urea nitrogen (BUN)” value in assay [5] and in assay [6] was “markedly reduced” throughout. The “mTORC1 activation (phosphorylation of S6K1 at threonine 389)” value in assay [3] and in assay [4] was “activate” throughout.

`C[C@H]1CCC/C=C/[C@@H]2C[C@H](O)C[C@H]2[C@H](O)/C=C/C(=O)O1` [brefeldin A, reference compound]: in assay [4] (MEFs), the “lysosomal localization of mTORC1 induced by glutamine and asparagine” value is “impairs”. The “glutamine and asparagine-induced mTORC1 activation” value in assay [4] (wild type and Rag depleted MEFs) is listed as “inhibits”.

Regarding `CC[C@H](C)[C@H](N)C(=O)O` [L-isoleucine], the sCr result was “reduced” in assay [1] (24 hours post Rh, 75 mg/kg i.p. 1 hour prior to injury, vs vehicle, n=7 (FIG. 2A)) and “reduced” in assay [2]. Further, the BUN entry in assay [1] (24 hours post Rh, 75 mg/kg i.p. 1 hour prior to injury, vs vehicle, n=7 (FIG. 2B)) is given as “reduced”; in assay [2], “reduced”.

Consider `CC(C)[C@H](N)C(=O)O` [L-valine], for which the sCr entry was “reduced” in assay [1] (setting [9]); “reduced” in assay [1] (48 hours post Rh, 75 mg/kg i.p. 1 hour prior to injury then every 8 hours, total 5 doses, vs vehicle, n=7 (FIG. 3C)); “elevated” in assay [2]. Further, the BUN entry in assay [1] (setting [10]) was “reduced”; in assay [1] (48 hours post Rh, 75 mg/kg i.p. 1 hour prior to injury then every 8 hours, total 5 doses, vs vehicle, n=7 (FIG. 3D)), “reduced”; in assay [2], “elevated”. Also, the “mTORC1 activation (phosphorylation of S6K1 at threonine 389)” value in assay [3] and in assay [4] was “activate” throughout.

As for `NC(=O)C[C@H](N)C(=O)O` [asparagine], the “mTORC1 activation (phosphorylation of S6K1 at threonine 389)” value in assay [3] and in assay [4] was “activate” each time.

For the compound `N[C@@H](CO)C(=O)O` [L-serine], in assay [2], the “impacts on I/R-AKI (sCr and BUN)” value is recorded as “Neither L-serine (FIGS. 4A, B), L-alanine (FIGS. 4A, B) nor L-methionine (FIGS. 4C, D) had significant impacts”. Moreover, the “mTORC1 activation (phosphorylation of S6K1 at threonine 389)” value in assay [3] and in assay [4] was “activate” each time.

For `N[C@@H](Cc1c[nH]cn1)C(=O)O` [L-histidine], the sCr entry in assay [1] (setting [7]) was “reduces”; in assay [1] (48 h post Rh, i.p. 1 hour prior to injury and every 8 hours thereafter, vs Veh Rh mice (FIG. 2I)) it was “reduces”; in assay [2] it was “reduced”. Further, the BUN entry was “reduces” in assay [1] (setting [8]); “reduces” in assay [1] (48 h post Rh, i.p. 1 hour prior to injury and every 8 hours thereafter, vs Veh Rh mice (FIG. 2J)); “reduced” in assay [2]. Besides, the “mTORC1 activation (phosphorylation of S6K1 at threonine 389)” value in assay [3] and in assay [4] was “activate” in each case.

In the case of `N=C(N)NCCC[C@H](N)C(=O)O` [L-arginine], the sCr entry in assay [1] (setting [9]) is given as “reduced”; in assay [2], “elevated”. The BUN entry is “reduced” in assay [1] (setting [10]) and “elevated” in assay [2]. For the same compound, the “mTORC1 activation (phosphorylation of S6K1 at threonine 389)” value in assay [3] and in assay [4] was “activate” each time.

On to `CSCC[C@H](N)C(=O)O` [L-methionine], for which, in assay [2], the “impacts on I/R-AKI (sCr and BUN)” value is “Neither L-serine (FIGS. 4A, B), L-alanine (FIGS. 4A, B) nor L-methionine (FIGS. 4C, D) had significant impacts”. Further, the “mTORC1 activation (phosphorylation of S6K1 at threonine 389)” value in assay [3] and in assay [4] was “activate” in each case.

Turning to `N[C@@H](CC(=O)O)C(=O)O` [L-aspartic acid], in assay [2], the BUN entry is given as “reduced” and the sCr entry is listed as “reduced”.

As for `N[C@@H](CS)C(=O)O` [Cysteine], the “mTORC1 activation (phosphorylation of S6K1 at threonine 389)” value in assay [4] was “activates”.

As for `C[C@H](N)C(=O)O` [L-alanine], the “impacts on I/R-AKI (sCr and BUN)” value in assay [2] is “Neither L-serine (FIGS. 4A, B), L-alanine (FIGS. 4A, B) nor L-methionine (FIGS. 4C, D) had significant impacts”. Moreover, the “mTORC1 activation (phosphorylation of S6K1 at threonine 389)” value in assay [3] and in assay [4] was “activate” in each case.

Turning to `NC(=O)CC[C@H](N)C(=O)O` [L-glutamine], the “effects on Rh-induced AKI (sCr and BUN)” value in assay [1] (24, 48 and 168 hours post Rh, 75 mg/kg i.p. 1 hour prior to injury, vs vehicle (FIGS. 2A-F)) is “no significant effects”. Further, in assay [2], the BUN entry was “reduced” and the sCr entry was “reduced”. In addition, the “mTORC1 activation (phosphorylation of S6K1 at threonine 389)” value in assay [3] is given as “activate”. Also, the “mTORC1 activation (phosphorylation of S6K1 at threonine 389)” value in assay [4] is listed as “activate”.

The record behind these values is patent publication US12691088B2, “Reactivation of mTOR in acute kidney injury (AKI)” (The Trustees of Columbia University in the City of New York, priority 2021, dated 2026).
